Laboratory results from patent US20120270237A9, “METHODS FOR THE IDENTIFICATION OF KINASE INTERACTING MOLECULES AND FOR THE PURIFICATION OF KINASE PROTEINS” (Cellzone AG, priority 2009, published 2012).

Legend:
Experiment in all cases: Kinobeads competition binding, L-363 cell lysate
Conditions in all cases: 10 μM free compound, L-363 lysate
IRE1 = IRE1 (Homo sapiens, UniProt O75460); design: Identified kinases with CZC31326 from L-363 cell lysate; endogenous in cells; host or cells: L-363 (MG132-treated)
Description: (§1) To one aliquot of cell lysate 10 μM of the free compound (FIG. 3, CZC31326) was added and allowed to bind to proteins in the lysate. Then the affinity matrix with the immobilized compound was added to capture proteins that were not interacting with the previously added free compound. Beads were separated from the lysate and bead bound proteins were eluted in SDS sample buffer and subsequently separated by SDS-Polyacrylamide gel electrophoresis (FIG. 8). Suitable gel bands were cut out and subjected to in-gel proteolytic digestion with trypsin. The second lysate aliquot was processed identically, however no free compound was added (DMSO solvent control). Peptides originating from samples 1 and 2 were labeled with iTRAQ reagents (iTRAQ 114 and iTRAQ 117) and the combined samples were analyzed with a nano-flow liquid chromatography system coupled online to a tandem mass spectrometer (LC-MS/MS) experiment followed by iTRAQ reporter ion quantification in the MS/MS spectra as described in Example 2.
(§2) For this experiment the human plasma cell leukaemia line L-363 was used (German Collection of Microorganisms and Cell Cultures, DSMZ number ACC49, Braunschweig, Germany). Cells were treated for three hours with 20 μM of the proteasome inhibitor MG132 (Z-Leu-Leu-Leu-al, Sigma C2211) prior to cell harvesting.

JNK2 = JNK2 (Homo sapiens, UniProt P45984); design: Identified kinases with CZC31326 from L-363 cell lysate; endogenous in cells; host or cells: L-363 (MG132-treated)
Description: as §1, §2

JAK1 = JAK1 (Homo sapiens, UniProt P23458); design: Identified kinases with CZC31326 from L-363 cell lysate; endogenous in cells; host or cells: L-363 (MG132-treated)
Description: as §1, §2

PKN1 = PKN1 (Homo sapiens, UniProt Q16512); design: endogenous in cells
Description: as §1, §2

MST1 = target: T1, MST1 (Homo sapiens, UniProt Q13043); design: endogenous in cells
T1 sequence (Q13043 1-487): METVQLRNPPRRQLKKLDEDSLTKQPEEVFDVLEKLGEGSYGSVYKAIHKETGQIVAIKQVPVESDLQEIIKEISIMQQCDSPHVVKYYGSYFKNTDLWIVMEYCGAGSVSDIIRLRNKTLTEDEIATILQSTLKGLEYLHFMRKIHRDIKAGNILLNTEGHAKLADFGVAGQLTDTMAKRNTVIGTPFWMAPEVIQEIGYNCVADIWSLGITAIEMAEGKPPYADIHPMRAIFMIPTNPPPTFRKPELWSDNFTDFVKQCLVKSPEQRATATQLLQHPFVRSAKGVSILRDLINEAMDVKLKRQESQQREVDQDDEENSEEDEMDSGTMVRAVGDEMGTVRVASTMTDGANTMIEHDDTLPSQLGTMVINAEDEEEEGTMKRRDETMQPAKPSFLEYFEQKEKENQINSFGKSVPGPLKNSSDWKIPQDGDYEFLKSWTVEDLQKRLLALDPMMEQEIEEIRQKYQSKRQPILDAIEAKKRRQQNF
Description: as §1, §2

MLK3 = MLK3 (Homo sapiens, UniProt Q16584); design: endogenous in cells
Description: as §1, §2

CHK1 = CHK1 (Homo sapiens, UniProt O14757); design: endogenous in cells
Description: as §1, §2

HIPK2 = HIPK2 (Homo sapiens, UniProt Q9H2X6); design: endogenous in cells
Description: as §1, §2

Erk2 = Erk2 (Homo sapiens, UniProt P28482); design: endogenous in cells
Description: as §1, §2

GSK3A = GSK3A (Homo sapiens, UniProt P49840); design: endogenous in cells
Description: as §1, §2

ALK2 = ALK2 (Homo sapiens, UniProt Q04771); design: endogenous in cells
Description: as §1, §2

CDK9 = CDK9 (Homo sapiens, UniProt P50750); design: endogenous in cells
Description: as §1, §2

MAP3K4 = MAP3K4 (Homo sapiens, UniProt Q9Y6R4); design: endogenous in cells; host or cells: L-363 cells (DSMZ ACC49), treated with MG132 before harvest
Description: as §1, §2

MAP3K1 = MAP3K1 (Homo sapiens, UniProt Q13233); design: endogenous in cells; host or cells: L-363 cells (DSMZ ACC49), treated with MG132 before harvest
Description: as §1, §2

MAP3K3 = MAP3K3 (Homo sapiens, UniProt Q99759); design: endogenous in cells; host or cells: L-363 cells (DSMZ ACC49), treated with MG132 before harvest
Description: as §1, §2

Sequence of MAP3K4 (Q9Y6R4 whole entry): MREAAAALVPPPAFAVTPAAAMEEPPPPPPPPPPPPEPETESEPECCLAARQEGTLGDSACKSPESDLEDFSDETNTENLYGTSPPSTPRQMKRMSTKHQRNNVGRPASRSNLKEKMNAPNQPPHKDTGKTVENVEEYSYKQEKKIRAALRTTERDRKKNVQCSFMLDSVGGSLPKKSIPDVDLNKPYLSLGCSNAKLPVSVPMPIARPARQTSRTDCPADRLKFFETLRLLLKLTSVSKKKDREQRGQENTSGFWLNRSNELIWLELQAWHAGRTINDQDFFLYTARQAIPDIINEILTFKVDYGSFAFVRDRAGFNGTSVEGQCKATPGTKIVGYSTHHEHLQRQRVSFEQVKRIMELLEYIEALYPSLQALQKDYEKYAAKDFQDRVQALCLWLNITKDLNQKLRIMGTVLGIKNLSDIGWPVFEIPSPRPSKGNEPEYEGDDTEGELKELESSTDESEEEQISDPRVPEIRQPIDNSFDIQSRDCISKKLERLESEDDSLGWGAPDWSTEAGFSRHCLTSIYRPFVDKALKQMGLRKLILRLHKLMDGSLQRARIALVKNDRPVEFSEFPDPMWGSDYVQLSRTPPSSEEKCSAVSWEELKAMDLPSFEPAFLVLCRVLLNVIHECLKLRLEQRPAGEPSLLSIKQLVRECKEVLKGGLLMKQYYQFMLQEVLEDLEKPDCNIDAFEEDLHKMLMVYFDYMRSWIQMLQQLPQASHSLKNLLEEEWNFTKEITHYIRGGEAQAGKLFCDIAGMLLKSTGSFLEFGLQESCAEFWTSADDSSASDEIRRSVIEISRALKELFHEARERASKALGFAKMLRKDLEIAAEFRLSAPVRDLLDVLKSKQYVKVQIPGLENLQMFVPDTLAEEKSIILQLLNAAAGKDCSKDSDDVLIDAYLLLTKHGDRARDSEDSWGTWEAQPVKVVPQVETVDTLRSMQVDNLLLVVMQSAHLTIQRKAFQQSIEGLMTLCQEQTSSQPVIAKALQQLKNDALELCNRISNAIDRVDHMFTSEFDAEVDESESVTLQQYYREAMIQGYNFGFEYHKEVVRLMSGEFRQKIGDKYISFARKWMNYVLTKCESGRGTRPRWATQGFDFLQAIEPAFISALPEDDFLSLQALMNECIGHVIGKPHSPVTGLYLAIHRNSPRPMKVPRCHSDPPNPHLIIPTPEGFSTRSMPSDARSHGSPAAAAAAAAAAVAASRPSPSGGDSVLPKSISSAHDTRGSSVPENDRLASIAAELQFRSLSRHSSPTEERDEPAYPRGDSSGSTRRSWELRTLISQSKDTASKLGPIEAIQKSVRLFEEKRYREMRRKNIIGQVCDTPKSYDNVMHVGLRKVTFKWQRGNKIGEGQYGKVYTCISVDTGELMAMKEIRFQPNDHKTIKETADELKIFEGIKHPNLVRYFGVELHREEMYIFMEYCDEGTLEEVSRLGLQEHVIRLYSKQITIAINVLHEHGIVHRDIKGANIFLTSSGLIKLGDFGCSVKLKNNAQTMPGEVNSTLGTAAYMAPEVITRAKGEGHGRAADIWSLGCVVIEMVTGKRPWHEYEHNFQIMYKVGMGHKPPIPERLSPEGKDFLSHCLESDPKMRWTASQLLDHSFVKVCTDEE
Sequence of HIPK2 (Q9H2X6 whole entry): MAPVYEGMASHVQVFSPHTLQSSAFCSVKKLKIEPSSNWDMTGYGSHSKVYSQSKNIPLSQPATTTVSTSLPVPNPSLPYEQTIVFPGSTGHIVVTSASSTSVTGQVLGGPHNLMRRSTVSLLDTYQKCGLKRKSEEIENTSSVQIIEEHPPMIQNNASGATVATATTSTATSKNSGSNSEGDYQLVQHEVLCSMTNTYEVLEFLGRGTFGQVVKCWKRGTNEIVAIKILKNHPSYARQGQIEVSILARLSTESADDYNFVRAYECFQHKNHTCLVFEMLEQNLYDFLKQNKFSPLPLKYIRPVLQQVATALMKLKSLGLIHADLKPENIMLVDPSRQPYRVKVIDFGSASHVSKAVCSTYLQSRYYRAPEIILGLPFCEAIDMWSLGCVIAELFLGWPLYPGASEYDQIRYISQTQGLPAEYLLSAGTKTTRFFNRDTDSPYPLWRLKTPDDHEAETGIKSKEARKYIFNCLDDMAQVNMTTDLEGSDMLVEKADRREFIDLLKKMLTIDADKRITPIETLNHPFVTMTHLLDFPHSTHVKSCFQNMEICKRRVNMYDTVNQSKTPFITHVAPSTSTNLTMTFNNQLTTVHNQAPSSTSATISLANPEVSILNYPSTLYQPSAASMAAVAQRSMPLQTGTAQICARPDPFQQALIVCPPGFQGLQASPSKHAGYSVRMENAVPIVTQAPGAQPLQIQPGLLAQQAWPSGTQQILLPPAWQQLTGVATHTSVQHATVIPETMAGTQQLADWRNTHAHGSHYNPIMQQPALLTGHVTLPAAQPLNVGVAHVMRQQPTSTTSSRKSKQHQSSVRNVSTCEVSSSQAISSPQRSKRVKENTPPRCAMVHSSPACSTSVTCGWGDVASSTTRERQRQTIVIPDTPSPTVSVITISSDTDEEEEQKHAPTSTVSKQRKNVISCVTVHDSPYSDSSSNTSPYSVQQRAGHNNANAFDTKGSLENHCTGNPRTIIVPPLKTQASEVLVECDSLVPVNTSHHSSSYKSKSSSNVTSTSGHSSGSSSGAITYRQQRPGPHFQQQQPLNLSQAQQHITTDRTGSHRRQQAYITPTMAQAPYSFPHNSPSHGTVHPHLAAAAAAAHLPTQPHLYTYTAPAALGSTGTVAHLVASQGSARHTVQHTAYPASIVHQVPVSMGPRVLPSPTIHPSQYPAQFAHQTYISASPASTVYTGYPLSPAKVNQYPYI
Sequence of CDK9 (P50750 whole entry): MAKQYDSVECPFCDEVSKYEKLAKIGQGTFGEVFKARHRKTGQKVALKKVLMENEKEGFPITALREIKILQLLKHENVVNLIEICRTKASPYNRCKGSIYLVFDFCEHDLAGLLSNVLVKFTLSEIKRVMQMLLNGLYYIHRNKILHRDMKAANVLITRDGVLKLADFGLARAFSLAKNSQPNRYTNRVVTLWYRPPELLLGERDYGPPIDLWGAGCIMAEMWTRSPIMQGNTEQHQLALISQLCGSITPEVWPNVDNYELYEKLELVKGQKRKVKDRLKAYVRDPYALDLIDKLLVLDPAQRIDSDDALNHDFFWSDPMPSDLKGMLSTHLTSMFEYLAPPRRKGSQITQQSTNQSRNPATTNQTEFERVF
Sequence of GSK3A (P49840 whole entry): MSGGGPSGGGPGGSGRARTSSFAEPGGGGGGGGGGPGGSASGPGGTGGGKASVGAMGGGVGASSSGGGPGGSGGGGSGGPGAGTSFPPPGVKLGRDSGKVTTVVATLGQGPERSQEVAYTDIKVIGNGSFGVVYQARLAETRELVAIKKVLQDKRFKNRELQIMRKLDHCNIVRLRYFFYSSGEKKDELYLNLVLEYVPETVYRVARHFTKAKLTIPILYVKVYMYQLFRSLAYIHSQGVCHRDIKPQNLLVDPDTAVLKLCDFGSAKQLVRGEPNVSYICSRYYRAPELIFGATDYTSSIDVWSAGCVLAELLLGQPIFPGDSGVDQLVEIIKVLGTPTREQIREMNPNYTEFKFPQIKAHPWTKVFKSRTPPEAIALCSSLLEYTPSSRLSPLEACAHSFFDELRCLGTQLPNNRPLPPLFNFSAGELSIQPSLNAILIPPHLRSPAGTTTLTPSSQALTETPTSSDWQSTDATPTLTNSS
Sequence of ALK2 (Q04771 21-509): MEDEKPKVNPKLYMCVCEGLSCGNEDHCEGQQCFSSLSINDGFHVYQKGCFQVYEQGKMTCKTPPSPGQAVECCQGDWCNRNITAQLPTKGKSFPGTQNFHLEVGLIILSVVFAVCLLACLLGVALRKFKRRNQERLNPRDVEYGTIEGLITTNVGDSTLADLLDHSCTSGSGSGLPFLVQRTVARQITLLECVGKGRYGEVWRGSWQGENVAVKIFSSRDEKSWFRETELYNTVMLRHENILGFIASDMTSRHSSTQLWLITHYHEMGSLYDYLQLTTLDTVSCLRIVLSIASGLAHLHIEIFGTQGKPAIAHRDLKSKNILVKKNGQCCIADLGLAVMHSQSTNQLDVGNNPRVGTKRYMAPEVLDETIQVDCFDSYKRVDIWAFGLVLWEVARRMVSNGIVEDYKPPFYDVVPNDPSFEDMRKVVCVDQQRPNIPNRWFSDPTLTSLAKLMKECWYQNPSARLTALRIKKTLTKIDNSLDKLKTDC
Sequence of Erk2 (P28482 whole entry): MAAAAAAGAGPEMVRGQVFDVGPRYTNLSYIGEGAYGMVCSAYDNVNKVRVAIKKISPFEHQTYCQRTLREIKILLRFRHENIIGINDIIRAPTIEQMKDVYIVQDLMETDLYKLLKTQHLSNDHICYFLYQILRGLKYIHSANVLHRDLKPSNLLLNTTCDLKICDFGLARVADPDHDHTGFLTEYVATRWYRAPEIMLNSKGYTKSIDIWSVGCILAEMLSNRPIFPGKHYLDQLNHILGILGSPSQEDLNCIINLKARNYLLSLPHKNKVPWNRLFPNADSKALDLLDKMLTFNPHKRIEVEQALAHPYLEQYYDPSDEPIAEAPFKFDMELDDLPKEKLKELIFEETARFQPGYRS
Sequence of CHK1 (O14757 whole entry): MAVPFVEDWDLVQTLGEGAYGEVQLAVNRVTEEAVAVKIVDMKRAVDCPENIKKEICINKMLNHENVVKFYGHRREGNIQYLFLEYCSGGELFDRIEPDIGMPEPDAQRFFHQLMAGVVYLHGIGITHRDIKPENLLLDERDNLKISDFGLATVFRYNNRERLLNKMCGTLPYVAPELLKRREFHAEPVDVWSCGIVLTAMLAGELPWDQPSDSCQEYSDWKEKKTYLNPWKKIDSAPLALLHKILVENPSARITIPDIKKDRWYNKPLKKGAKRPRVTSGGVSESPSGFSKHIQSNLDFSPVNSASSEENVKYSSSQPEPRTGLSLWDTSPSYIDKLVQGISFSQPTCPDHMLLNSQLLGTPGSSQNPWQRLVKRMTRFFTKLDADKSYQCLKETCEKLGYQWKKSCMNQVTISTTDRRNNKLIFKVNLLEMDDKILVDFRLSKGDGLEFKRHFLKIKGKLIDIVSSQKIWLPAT

CS(=O)(=O)Nc1ccccc1Nc1nc(Nc2cccc(OCCN)c2)ncc1Cl [CZC31326, N-(2-(2-(3-(2-aminoethoxy)phenylamino)-5-chloropyrimidin-4-ylamino)phenyl)methanesulfonamide]
inhibition at 10 µM (IRE1): 97.9%
Competition % (JNK2): 88%
Competition % (JAK1): 97.2%
inhibition at 10 µM (PKN1): 95.9%
Competition % (MST1): 98.3%
Competition % (MLK3): 97.5%
Competition % (CHK1): 94.8%
inhibition at 10 µM (HIPK2): 95.6%
inhibition at 10 µM (Erk2): 74.4%
inhibition at 10 µM (GSK3A): 96.9%
inhibition at 10 µM (ALK2): 95.7%
inhibition at 10 µM (CDK9): 97.7%
inhibition at 10 µM (MAP3K4): 95.8%
inhibition at 10 µM (MAP3K1): 96.2%
inhibition at 10 µM (MAP3K3): 97.4%
